Where “and” joins values, the source holds several entries; their conditions need not be identical. Equal entries are not always repeated. Ends that are not written are not given here.
Columns and labels:
[1] = test system: H3N2 influenza A/Cal/07/04; set-up: species or system ferret; settings: in vivo; for ferrets with significant/severe respiratory distress (high fever, sneezing): 0.3 mg/kg
influenza A/Cal/07/04 = test system: influenza A/Cal/07/04; set-up: species or system ferret; settings: in vivo; for ferrets with significant respiratory distress, high fever, sneezing / signs of influenza: 0.3 mg/kg
[2] = test system: influenza A/PR/8/34 (H1N1); test: Inhibition of influenza virus-induced hemagglutination, A/PR/8/34; type: cell-based; settings: for concentration inhibiting influenza virus-induced hemagglutination: optimal numbers of red blood cells and concentrations of virus
Method: Studies have been conducted with various influenza strains to better understand the mechanism of action of the peptides of the invention, e.g., to determine which step in the viral replication cycle is inhibited by F3, F1, and related influenza virus inhibitory peptides. At optimal numbers of red blood cells and concentrations of influenza A/PR/8/34 (H1N1), both F3 and F1 inhibited influenza virus-induced hemagglutination at about 10 μM concentrations.

influenza A virus = test: Plaque reduction / virus infectivity assays, influenza A virus (strain not specified); type: cell-based; settings: for IC50: normal-sized plaques, read-out: potency in virus infectivity assays, normal-sized plaques
Method: (§1) Using an immunoplaque assay with AVICEL® microcrystalline cellulose as the overlay (Matrosovich et al., 2006), plaques are detected by fixing the monolayers and staining with a specific antibody to the influenza virus nucleoprotein. In the peptide inhibition assay, peptide is preincubated with about 100 plaque forming units (pfu) of the virus for approximately 1 hour, then used to infect the monolayers. Two conditions were used for the incubation: (1) standard condition in which the peptide is included in the overlay at the same concentration that was used in the preincubation step, or (2) a condition in which the peptide is not included in the overlay.
(§2) F3 was evaluated for inhibition of multiple subtypes of influenza A viruses utilizing Madin-Darby Canine Kidney (“MDCK”) cell plaque assays performed using the A/WSN/33 (H1N1) and A/Udorn/72 (H3N2) subtypes of influenza A virus. Dilutions of 50 μM to 2.5 μM of F3 and the randomly scrambled control peptide (SEQ ID NO: 14) were used to evaluate the effects of these peptides on viral infectivity. Six dilutions of F3 and of the control peptide were tested against the H1N1 viral subtype; and another six dilutions of each peptide were tested against the H3N2 viral subtype.

H1N1 influenza A virus = test: MDCK cell immunoplaque / plaque reduction assay, H1N1; type: cell-based; settings: H1 influenza A virus subtype
Method: as §1, §2
(§3) At low nM concentrations (<10 nM) for condition (1), or low μM ([…]) for condition (2), the presence of “mini-plaques” were apparent.

H3N2 influenza A virus = test: MDCK cell immunoplaque / plaque reduction assay, H3N2; type: cell-based; settings: H3 influenza A virus subtype
Method: as §1, §2, §3

[3] = test system: recombinant H5N1 influenza virus
[4] = test system: influenza B (B/Shanghai/10/2003)
[5] = test system: influenza B (B/Shanghai/361/2002)

Substance: SWLVNKIYLTDDEVEL (Scrambled version of residues 84-99 of influenza A/H3 HA2) [scrambled control peptide, reference compound]
- ferrets displaying significant nasal discharge [1]: 100%
- ferrets presenting with lethargy [1]: 50%
- ferrets with significant/severe respiratory distress (high fever, sneezing) [1]: all
- lung presentation (gross pathology) (influenza A/Cal/07/04): evidence of inflammation
- tissue pathology (histopathology) (influenza A/Cal/07/04): infiltrations, bronchial inflammation, with bronchial exudates
- ferrets with significant respiratory distress, high fever, sneezing / signs of influenza (influenza A/Cal/07/04): all 12
- inhibition of hemagglutination ([2]; at any concentration): did not inhibit
- anti-viral properties (influenza A virus): no discernable anti-viral properties
- inhibition of influenza A virus plaque formation (influenza A virus; under any condition (peptide in overlay or not)): did not inhibit

Substance: VDDGFLDIWTYNAELLVLL [F1]
- antiviral activity in plaque assays (H1N1 influenza A virus): potent (picomolar)
- concentration inhibiting influenza virus-induced hemagglutination [2]: about 10 μM
- IC50 (influenza A virus): ~0.2 nM
- antiviral activity in plaque assays (H3N2 influenza A virus): potent (picomolar)

Substance: VEDTKIDLWSYNAELL-NH2 [F3]
- clinical signs of influenza [1]: no clinical signs of influenza
- ferrets with very mild respiratory signs with slight fever [1]: 2/5 and 1/6
- ferrets with significant/severe respiratory distress (high fever, sneezing) [1]: none
- IC50 [3]: < 5 nM
- IC50 [4]: < 5 nM
- animals that developed mild signs of influenza (influenza A/Cal/07/04): two
- lung presentation (gross pathology) (influenza A/Cal/07/04): normal lung presentations
- pathological responses (respiratory distress, nasal discharge, activity), FIG. 6 (influenza A/Cal/07/04): significantly reduced pathological responses
- reduction of peak titers of influenza virus in nasal washes (influenza A/Cal/07/04): greater than 2.0 log10
- reduction of peak titers of influenza virus in the lungs (influenza A/Cal/07/04): greater than 6.0 log10
- spread of the virus to the lower respiratory tract and to other organs (influenza A/Cal/07/04): effectively blocked
- tissue pathology (histopathology) (influenza A/Cal/07/04): markedly reduced pathology
- ferrets with significant respiratory distress, high fever, sneezing / signs of influenza (influenza A/Cal/07/04): none
- concentration inhibiting influenza virus-induced hemagglutination [2]: about 10 μM
- anti-viral properties (influenza A virus): potent anti-viral properties
- inhibition in plaque reduction assays (influenza A virus): picomolar inhibition
- concentration at which mini-plaques were apparent (influenza A virus; condition (1): peptide included in the overlay): < 10 nM
- IC50 (influenza A virus): ~0.2 nM
- IC50 [5]: < 5 nM

— US9353157B2 (priority 2007, dated 2016)
